How the values were obtained:
[1] = system: TG3 immunoreactivity in OKA treated MSN1a cells; assay: MSN1a cell culture model, ELISA with TG3 antibody, okadaic acid treated cells; format: cell-based, human; conditions: 1 μM OKA, 2 hrs at 37° C., read-out: IC50 for inhibition of TG3 immunoreactivity in OKA treated MSN1a cells
Summary of the method: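 Human MSN1a neuroblastoma cells (2×10^4/well) in KRH pH 7.4 were exposed 2 h at 37 °C to 1 μM okadaic acid plus 0–64 μM compound (0.26% DMSO final). Lysates were coated onto ELISA plates and probed with TG3 and an alkaline phosphatase secondary. Absorbance was read at 405 nm with p-nitrophenyl phosphate substrate.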

[2] = system: Streptococcus pneumoniae SRI 1167; assay: Agar disc diffusion assay; format: cell-based; conditions: 240 ug/disc, about 24 hr at 37° C.; + = zone too large to measure
Method: (§1) The activity of the compounds is determined using the following assay. The compound is dissolved in DMSO at a concentration of 6 mg/ml and then diluted with water to a final concentration of 3 mg/ml in 50% DMSO (% DMSO was shown not to be inhibitory to the test organisms). An aliquot (0.08 ml) of each drug solution was transferred to filter paper discs (12.7 mm diameter, Scmeicherand Schuell) for use in the agar diffusion assay. The concentration of each drug on the filter paper disc was 240 ug/disc. The test organisms included the following: Gram-positive aerobes (Staphylococcus aureus SRI 1323, Streptococcus pneumoniae SRI 1167); Gram-negative aerobe (Proteus vulgaris SRI 180); and the yeast Candida albicans SRI 523. An agar disc diffusion assay was used to evaluate the antimicrobial activity of the test compounds. Briefly, cultures were prepared from 16-20 hr agar slant cultures by inoculating in physiological saline to a turbidity equivalent to a #0.5 McFarland turbidity standard for the bacteria and a #3 McFarland standard for C. albicans. The surface of Mueller-Hinton agar (15×100 mm plates, mm) were evenly inoculated with each standardized culture using a cotton swab. Filter paper discs containing the drug concentration listed above were then placed on the inoculated agar plates along with a disc containing the solvent used to dissolve each drug. The plates were incubated at 37° C. for about 24 hr and the diameters of the zones of inhibition measured with a vernier caliper. Positive control drugs consisted of streptomycin for use with the bacterial strains and 5-fluorocytosine for use with C. albicans. The positive control drugs were assayed as described above for the compounds of the present invention using the same concentration.

Proteus vulgaris SRI 180 = assay: Agar disc diffusion assay; format: cell-based; conditions: 240 ug/disc, about 24 hr at 37° C.; 0 = no measurable zone
Method: as §1

[3] = system: Staphylococcus aureus SRI 1323; assay: Agar disc diffusion assay; format: cell-based; conditions: 240 ug/disc, about 24 hr at 37° C.
Method: as §1

Candida albicans SRI 523 = assay: Agar disc diffusion assay; format: cell-based; conditions: 240 ug/disc, about 24 hr at 37° C.
Method: as §1

SMILES: Cl.Cl.O=C(CCN1CCN(Cc2ccccc2)CC1)c1ccc(F)c2ccccc12 [Example 21, 1-(4″-Fluoronaphth-1″-yl)-3-(4′-benzyl-1′-piperazinyl)-1-propanone dihydrochloride]
- IC50 [1]: 6.6 µM
- Diameter of the zone of inhibition, S. pneumoniae [2]: 40.7 mm
- Diameter of the zone of inhibition, P. vulgaris (Proteus vulgaris SRI 180): 0^1 mm
- Diameter of the zone of inhibition, S. aureus [3]: 33.8 mm
- Diameter of the zone of inhibition, C. albicans (Candida albicans SRI 523): 26.6 mm
